How the values were obtained:
[1] = system: frataxin (FXN) mRNA in GM15850 cells; assay: FXN mRNA by RT-PCR in GM15850 FRDA patient cell line; type: cell-based, human; conditions: 1 μM, 24 hours, normalized to TBP, relative to 0.1% DMSO
Source text: GM15850 and GM15851 cell lines (Epstein Barr virus transformed human B-lymphocytes) were obtained from the National Institute of General Medical Sciences (NIGMS) Human Genetic Cell Repository at the Coriell Institute for Medical Research, Camden, N.J. The GM15850 cell line was derived from a clinically affected Friedreich's ataxia patient ataxia displaying scoliosis, hypertrophic cardiomyopathy, and slurred speech, and characterized as homozygous for the GAA expansion in the frataxin gene with alleles of approximately 650 and 1030 repeats. The GM15851 cell line was derived from a clinically unaffected individual having two FRDA alleles in the normal range of GAA trinucleotide repeats (from about 6 to about 34 repeats). This clinically unaffected individual is a sibling of the clinically affected patient from which the GM15850 cell line was derived.
Cells were maintained in RPMI 1640 supplemented with 2 mM L-glutamine and 15% fetal bovine serum (FBS) at 37° C. in a humidified atmosphere of 5% CO2. Cell density was maintained between 200,000 cells/mL and 1,000,000 cells/mL. Cell growth and morphology were monitored by phase contrast microscopy and cell viability by trypan blue exclusion. To maintain cell density, cells were passaged by centrifuging at 500g for 3 minutes and resuspending the cells in fresh media. […]

[2] = system: FXN protein in GM15851 cells; assay: Immunoblot for FXN protein in GM15851 cells; type: cell-based, human; conditions: 24 hours, 1 μM, Agent 4 0.1, 0.5 or 1 μM
Method: (§1) In FIG. 3A, “50” refers to GM15850 cells and in FIG. 3B, “51” refers to GM15851 cells. Cells were treated as in Example 4.
(§2) Total cell extracts from cell lines were used for immunoblot analysis. Antibodies to frataxin (abcam ab110328, 1:250 dilution) or alpha-Tubulin (Cell Signaling Technologies 2144, 1:1000 dilution) were used. Signal was detected by chemiluminescence with HRP-conjugated secondary antibodies (Bio-Rad 172-1011, 1:2000 for anti-mouse frataxin and GE NA934V, 1:2000 for anti-rabbit alpha-Tubulin).

[3] = system: MYC transcription in MM cells; conditions: MM cells bearing IgH rearrangement at the MYC locus; cited from earlier work
[4] = system: FXN protein in GM15850 cells; assay: Immunoblot for FXN protein in GM15850 cells; type: cell-based, human; conditions: 24 hours, 1 μM, Agent 4 0.1, 0.5 or 1 μM
Method: as §1, §2

[5] = system: FXN-GAA-Luc reporter cell line; assay: Luciferase reporter assay, FXN-GAA-Luc line (~310 GAA repeats); type: cell-based; conditions: 24 hours, Agent 4 at 1 or 2 μM, other treatments 2 μM
Method: Treatments are 2 μM unless otherwise indicated. Results are mean±SEM (n=4).

[6] = system: cell cycle; conditions: cited from earlier work

Cc1sc2c(c1C)C(c1ccc(Cl)cc1)=N[C@@H](CC(=O)NCCOCCOCCOCCOCCOCCOCCC(=O)NCCCN(C)CCCNC(=O)CCNC(=O)c1cc(NC(=O)c3cc(NC(=O)c4nc(NC(=O)c5cc(NC(=O)CCCNC(=O)c6nc(NC(=O)c7cc(NC(=O)c8cc(NC(=O)c9sccc9Cl)cn8C)cn7C)cn6C)cn5C)cn4C)cn3C)cn1C)c1nnc(C)n1-2 [Control Conjugate 2]
increase in FXN mRNA levels [1]: no increase | FXN protein (immunoblot) [2]: increase in FXN protein

Cc1sc2c(c1C)C(c1ccc(Cl)cc1)=N[C@@H](CC(=O)OC(C)(C)C)c1nnc(C)n1-2 [JQ1]
MYC transcription [3]: inhibits MYC transcription in a dose- and time-dependent manner | FXN protein (immunoblot) [4]: Neither polyamide alone (3), nor JQ1, nor the unconjugated treatment induced increased production of FXN protein | increase in FXN mRNA levels [1]: no increase | luciferase activity [5]: Significant activation was not observed | cell cycle effect [6]: known to cause cell cycle arrest

Source: patent publication US10517877B2, “Compounds and methods for modulating frataxin expression” (Wisconsin Alumni Research Foundation, priority 2016, dated 2019)
